In ChEMBL document CHEMBL6134779, “Design of Proteolytic-Resistant Antifungal Peptides by Utilizing Minimum d-Amino Acid Ratios” (J Med Chem, 2024):
≈ marks a conversion by molar mass, not a printed value. Calls of active or inactive are those of the source. No cut-off for these calls is given here.

Experiments:
[1] = system: Candida albicans; assay: Antifungal activity against Candida albicans SP3903 assessed as inhibition of fungal growth incubated for 48 hrs; format: functional
[2] = system: Candida albicans; assay: Antifungal activity against Fluconazole-resistant Candida albicans 58288 assessed as inhibition of fungal growth incubated for 48 hrs; format: functional
[3] = system: Candida albicans; assay: Antifungal activity against Candida albicans SP3876 assessed as inhibition of fungal growth incubated for 48 hrs; format: functional
[4] = system: Candida albicans; assay: Antifungal activity against Candida albicans SP3931 assessed as inhibition of fungal growth incubated for 48 hrs; format: functional
[5] = system: Candida albicans; assay: Antifungal activity against Candida albicans 14936 assessed as inhibition of fungal growth incubated for 48 hrs; format: functional
[6] = system: Candida albicans; assay: Antifungal activity against Candida albicans 17546 assessed as inhibition of fungal growth incubated for 48 hrs; format: functional
[7] = system: Candida albicans; assay: Antifungal activity against Fluconazole-resistant Candida albicans 56214 assessed as inhibition of fungal growth incubated for 48 hrs; format: functional
[8] = system: Candida albicans; assay: Antifungal activity against Candida albicans 56452 assessed as inhibition of fungal growth incubated for 48 hrs; format: functional
[9] = system: Candida parapsilosis; assay: Antifungal activity against Candida parapsilosis CGMCC 2.3989 assessed as inhibition of fungal growth incubated for 48 hrs; format: functional; conditions: Lodderomyces parapsilosis
[10] = Hemolytic activity in human red blood cells assessed as hemolysis incubated for 1 hr; format: toxicity, cell-based, Erythrocyte
[11] = system: HEK293; assay: Cytotoxicity against HEK293 cells assessed as reduction in cell viability at 128 uM incubated for 4 hrs by MTT assay; format: toxicity, cell-based; conditions: human, hek293, 4 h
[12] = system: HEK293; assay: Cytotoxicity against HEK293 cells assessed as cell death at 64 uM measured after 8 hrs by calcein-AM and propidium iodide Live/Dead dye staining assay; format: toxicity, cell-based; conditions: human, hek293, 8 h
[13] = system: Candida albicans; assay: Antifungal activity against Candida albicans CGMCC 2.2086 assessed as inhibition of fungal growth incubated for 48 hrs in presence of NaCl; format: functional
[14] = system: Candida albicans; assay: Antifungal activity against Candida albicans CGMCC 2.2086 assessed as inhibition of fungal growth incubated for 48 hrs in presence of KCl; format: functional
[15] = system: Candida albicans; assay: Antifungal activity against Candida albicans CGMCC 2.2086 assessed as inhibition of fungal growth incubated for 48 hrs in presence of NH4Cl; format: functional
[16] = system: Candida albicans; assay: Antifungal activity against Candida albicans CGMCC 2.2086 assessed as inhibition of fungal growth incubated for 48 hrs in presence of MgCl2; format: functional
[17] = system: Candida albicans; assay: Antifungal activity against Candida albicans CGMCC 2.2086 assessed as inhibition of fungal growth incubated for 48 hrs in presence of ZnCl2; format: functional
[18] = system: Candida albicans; assay: Antifungal activity against Candida albicans CGMCC 2.2086 assessed as inhibition of fungal growth incubated for 48 hrs in presence of FeCl3; format: functional
[19] = system: Candida albicans; assay: Antifungal activity against Candida albicans CGMCC 2.2086 assessed as inhibition of fungal growth incubated for 48 hrs in presence of CaCl2; format: functional
[20] = Stability of the compound in NaCl assessed as change in secondary structure by CD spectra analysis; format: physicochemical
[21] = Stability of the compound in NH4Cl assessed as change in secondary structure by CD spectra analysis; format: physicochemical
[22] = Stability of the compound in MgCl2 assessed as change in secondary structure by CD spectra analysis; format: physicochemical
[23] = Stability of the compound in ZnCl2 assessed as change in secondary structure by CD spectra analysis; format: physicochemical
[24] = Stability of the compound in CaCl2 assessed as change in secondary structure by CD spectra analysis; format: physicochemical
[25] = system: Candida albicans; assay: Ratio of MIC95 for antifungal activity against Candida albicans CGMCC 2.2086 in presence of MgCl2 to MIC95 for MIC95 for antifungal activity against Candida albicans CGMCC 2.2086; format: functional
[26] = system: Candida albicans; assay: Antifungal activity against Candida albicans CGMCC 2.2086 assessed as inhibition of fungal growth incubated for 2 hrs in presence of trypsin; format: functional, organism-based
[27] = system: Candida albicans; assay: Antifungal activity against Candida albicans CGMCC 2.2086 assessed as inhibition of fungal growth incubated for 2 hrs in presence of chymotrypsin; format: functional, organism-based
[28] = Proteolytic stability of the compound assessed as chymotrypsin (unknown origin)-mediated drug degradation measured after 8 hrs by 16.5% tricine-SDS-PAGE analysis; format: ADME; conditions: human
[29] = Proteolytic stability of the compound assessed as protease K (unknown origin)-mediated drug degradation measured after 8 hrs by 16.5% tricine-SDS-PAGE analysis; format: ADME; conditions: human
[30] = Proteolytic stability of the compound assessed as trypsin (unknown origin)-mediated drug degradation measured after 8 hrs by RP-HPLC analysis; format: ADME; conditions: human
[31] = system: Candida albicans; assay: Induction of Candida albicans CGMCC 2.2086 cell wall permeabilization by NPN probe based assay; format: functional, organism-based; conditions: dose 1-128 µM
[32] = system: Cell membrane; assay: Induction of cytoplasmic membrane depolarization in Candida albicans CGMCC 2.2086 at 0.5 to 2X MIC measured up to 3600 secs by DISC3-5 dye based fluorescence assay; format: subcellular; conditions: time <= 3600.0 sec
[33] = system: Candida albicans; assay: Induction of ROS generation in Candida albicans CGMCC 2.2086 measured after 60 mins by […] dye based fluorescence assay; format: functional, organism-based; conditions: dose 0.5-128 µM
[34] = system: Cell membrane; assay: Disruption of Candida albicans CGMCC 2.2086 cell membrane at 1X MIC measured after 1 hr by SYTO9/propidium iodide staining based fluorescence microscopic analysis; format: subcellular
[35] = system: Candida albicans; assay: Induction of morphological changes in Candida albicans CGMCC 2.2086 assessed as appearance of cell pits at 1X MIC measured after 60 mins by SEM analysis; format: functional, organism-based
[36] = system: Candida albicans; assay: Induction of morphological changes in Candida albicans CGMCC 2.2086 assessed as appearance of cell holes at 1X MIC measured after 60 mins by SEM analysis; format: functional, organism-based
[37] = system: Candida albicans; assay: Induction of morphological changes in Candida albicans CGMCC 2.2086 assessed as cell content leakage at 1X MIC measured after 60 mins by TEM analysis; format: functional, organism-based
[38] = system: Candida albicans; assay: Fungicidal activity against Candida albicans CGMCC 2.2086 measured up to 120 mins by time-kill assay; format: functional, organism-based
[39] = system: Candida albicans; assay: Fungicidal activity against Candida albicans CGMCC 2.2086 at 1X MIC measured within 90 mins by time-kill assay; format: functional, organism-based
[40] = system: Candida albicans; assay: Resistance development in Candida albicans CGMCC 2.2086 measured after 30 passages by broth microdilution method; format: functional, organism-based
[41] = system: Candida albicans; assay: Antifungal activity against Candida albicans CGMCC 2.2086 infected in C57BL/6 mouse keratitis model assessed as reduction in fungal cell count at 5 mg/ml administered as 10 uL eye drop every 5 mins for first 1 hr and every 30 mins for next 7 hrs relative to control; format: functional; set-up: scale not given: the % may be the effect or the level left; conditions: route ou, time 8 hrs
[42] = system: Candida albicans; assay: Antifungal activity against Candida albicans CGMCC 2.2086 infected in C57BL/6 mouse keratitis model assessed as increase in ocular clarity at 5 mg/ml administered as 10 uL eye drop every 5 mins for first 1 hr and every 30 mins for next 7 hrs; format: functional, organism-based; conditions: route ou, time 8.0 hrs
[43] = system: Candida albicans; assay: Antifungal activity against Candida albicans CGMCC 2.2086 infected in C57BL/6 mouse keratitis model assessed as increase in ocular transparency at 5 mg/ml administered as 10 uL eye drop every 5 mins for first 1 hr and every 30 mins for next 7 hrs; format: functional, organism-based; conditions: route ou, time 8.0 hrs

What does the source list for `CC[C@H](C)[C@H](N)C(=O)N[C@H](C(=O)N[C@H](CCCNC(=N)N)C(=O)N[C@@H](CCCNC(=N)N)C(=O)N[C@@H](Cc1c[nH]cn1)C(=O)N[C@H](C(=O)N[C@H](C(=O)N[C@H](C(=O)N[C@H](C(=O)N[C@H](CCCNC(=N)N)C(=O)N[C@@H](CCCNC(=N)N)C(=O)N[C@@H](Cc1c[nH]cn1)C(=O)N[C@H](C(=O)N[C@H](C(=O)N[C@H](C(=O)N[C@H](C(=O)N[C@H](CCCNC(=N)N)C(=O)N[C@@H](CCCNC(=N)N)C(=O)N[C@@H](Cc1c[nH]cn1)C(=O)N[C@H](C(=O)N[C@H](C(N)=O)[C@@H](C)CC)[C@@H](C)CC)[C@@H](C)CC)[C@@H](C)CC)[C@@H](C)CC)[C@@H](C)CC)[C@@H](C)CC)[C@@H](C)CC)[C@@H](C)CC)[C@@H](C)CC)[C@@H](C)CC`?
MIC95 [1]: 2 µM (≈ 5.45 µg/mL); MIC95 [2]: 2 µM (≈ 5.45 µg/mL); MIC95 [3]: 2 µM (≈ 5.45 µg/mL); MIC95 [4]: 2 µM (≈ 5.45 µg/mL); MIC95 [5]: 4 µM (≈ 10.9 µg/mL); MIC95 [6]: 4 µM (≈ 10.9 µg/mL); MIC95 [7]: 4 µM (≈ 10.9 µg/mL); MIC95 [8]: 2 µM (≈ 5.45 µg/mL); MIC95 [9]: 4 µM (≈ 10.9 µg/mL); HC50 at 1 h [10]: > 512 µM; Activity [11]: Toxic; Activity [12]: Toxic; MIC95 [13]: 16 µM; MIC95 [14]: 4 µM; MIC95 [15]: 2 µM; MIC95 [16]: 4 µM; MIC95 [17]: 4 µM; MIC95 [18]: 8 µM; MIC95 [19]: 8 µM; Stability [20]: Unstable; Stability [21]: Stable; Stability [22]: Stable; Stability [23]: Stable; Stability [24]: Stable; Ratio [25]: 4; Activity [26]: Active; Activity [27]: Active; Stability [28]: Stable; Stability [29]: Stable; Stability [30]: Stable; Activity [31]: Dose-dependent-effect; Activity [32]: Active; Activity [33]: Dose-dependent-effect; Activity [34]: Active; Activity [35]: Active; Activity [36]: Active; Activity [37]: Active; Activity [38]: Dose-dependent-effect; Activity [39]: Active; Eliminated All Fungal Organisms; Activity [40]: inactive; Activity [41]: >65%; Activity [42]: Active; Activity [43]: Active
